In US10947252B2, “Inhibitors of KEAP1-Nrf2 protein-protein interaction” (Janssen Pharmaceutica NV, priority 2018, dated 2021) one finds Kd and EC50 data, which are given here for twelve compounds.

The structures appear in SMILES notation. Bounds are passed on as bounds.

Assay [1] concerns the target Kelch domain of human KEAP1 (321-624 aa) (Homo sapiens (Human), UniProt Q14145). Description: KEAP1 KELCH ThermoFluor binding assay.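 Note: Ligand-induced melting temperature shift of E. coli-expressed KEAP1 Kelch protein, Kd estimated from concentration-response curves of ΔTm.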 The conditions noted are these: KEAP Kelch […], 1,8-ANS, pH 7.0, average of results obtained, read-out: Tf Kd. On the technique in general: DSF heats the sample and reads unfolding from a dye or from intrinsic fluorescence.
The test system of assay [2] is Glo-Response ARE-luc2P HEK293 cell line. The assay is described as follows: ARE luciferase reporter cell-based assay.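 Note: luciferase signal tracks Nrf2 activation of the ARE once compounds disrupt KEAP1-Nrf2 binding, read with One-Glo reagent, DMSO serving as low control.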 The conditions noted are these: average of results obtained. (In general: In a reporter assay the amount or activity of a reporter protein is the signal.)

Chain of Kelch domain of human KEAP1 (321-624 aa) (Q14145 321-624): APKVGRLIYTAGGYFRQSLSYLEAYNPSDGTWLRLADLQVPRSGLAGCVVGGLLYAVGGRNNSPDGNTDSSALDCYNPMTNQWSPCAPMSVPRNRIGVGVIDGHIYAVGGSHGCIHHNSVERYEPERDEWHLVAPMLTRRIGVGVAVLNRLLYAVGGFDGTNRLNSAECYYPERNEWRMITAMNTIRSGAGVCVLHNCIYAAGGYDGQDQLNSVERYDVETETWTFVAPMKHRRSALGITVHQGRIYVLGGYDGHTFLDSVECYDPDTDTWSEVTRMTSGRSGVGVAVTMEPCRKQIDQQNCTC

As to `Cc1cnc2c(c1)S(=O)(=O)N(Cc1nc([C@@H](c3ccn4c(C(F)F)nnc4c3C)C(C)(C)C(=O)O)ccc1C)CC1(CC1)O2` (single isomer, unassigned) [Example 334, (*S)-3-(3-(Difluoromethyl)-8-methyl-[1,2,4]triazolo[4,3-a]pyridin-7-yl)-2,2-dimethyl-3-(5-methyl-6-((8′-methyl-1′,1′-dioxidospiro[cyclopropane-1,4′-pyrido[2,3-b][1,4,5]oxathiazepin]-2′(3′H)-yl)methyl)pyridin-2-yl)propanoic Acid], the Kd (commonly the equilibrium constant for the complex coming apart) in assay [1] was below 1 nM. For the same compound, the EC50 (in general, the concentration at which the effect is half-maximal) in assay [2] (Homo sapiens, HEK293, 24 h) is 5.2 nM.
In the same order, the values of `Cc1ccc(C(CC(=O)O)c2ccn3c(C(F)(F)F)nnc3c2C)nc1CN1CC2(COC2)Oc2ncccc2S1(=O)=O` (stereo not drawn) [Example 493, 3-(6-((1′,1′-Dioxidospiro[oxetane-3,4′-pyrido[2,3-b][1,4,5]oxathiazepin]-2′(3′H)-yl)methyl)-5-methylpyridin-2-yl)-3-(8-methyl-3-(trifluoromethyl)-[1,2,4]triazolo[4,3-a]pyridin-7-yl)propanoic Acid] are below 1 nM and 1230 nM.
`CCn1nnc2c(C)c(C(c3cnc(C)c(CN4CC5(CCOCC5)Oc5ncccc5S4(=O)=O)c3)C(C)(C)C(=O)O)ccc21` (racemic) [Example 58, (R/S)-3-(5-((1′,1′-Dioxido-2,3,5,6-tetrahydrospiro[pyran-4,4′-pyrido[2,3-b][1,4,5]oxathiazepin]-2′(3′H)-yl)methyl)-6-methylpyridin-3-yl)-3-(1-ethyl-4-methyl-1H-benzo[d][1,2,3]triazol-5-yl)-2,2-dimethylpropanoic Acid]: the Kd in assay [1] came out at 2.4 nM. Moreover, the EC50 in assay [2] (Homo sapiens, HEK293, 24 h) was 226 nM.
Take `Cc1ccc([C@H](CC(=O)O)c2cc(OC(F)F)c3c(c2)nnn3C)cc1CN1C[C@H]2CCCN2c2ncccc2S1(=O)=O` (relative stereo) [Example 247, (*S)-3-(7-(Difluoromethoxy)-1-methyl-1H-benzo[d][1,2,3]triazol-5-yl)-3-(3-(((R)-5,5-dioxido-7a,8,9,10-tetrahydropyrido[2,3-f]pyrrolo[2,1-d][1,2,5]thiadiazepin-6(7H)-yl)methyl)-4-methylphenyl)propanoic Acid]: the Kd in assay [1] is below 1 nM. The compound further displayed a concentration for a half-maximal effect (EC50) in assay [2] (24 hours) of 225 nM.
Consider `Cc1ccc(C(CC(=O)O)c2ccn3c(C(F)F)nnc3c2C)cc1CN1CC2(CC2)Oc2ncccc2S1(=O)=O` (stereo not drawn) [Example 472, 3-(3-(Difluoromethyl)-8-methyl-[1,2,4]triazolo[4,3-a]pyridin-7-yl)-3-(3-((1′,1′-dioxidospiro[cyclopropane-1,4′-pyrido[2,3-b][1,4,5]oxathiazepin]-2′(3′H)-yl)methyl)-4-methylphenyl)propanoic Acid], for which the Kd in assay [1] is below 1 nM. Besides, a half-maximal response in assay [2] (Homo sapiens, HEK293, 24 h) (EC50) required 245 nM.
With `Cc1ccc(C(CC(=O)O)c2ccc3c(nnn3CC3CC3)c2C)cc1CN1CC2(CC2)N(C)c2ncccc2S1(=O)=O` (stereo not drawn) [Example 75, 3-(1-(Cyclopropylmethyl)-4-methyl-1H-benzo[d][1,2,3]triazol-5-yl)-3-(4-methyl-3-((5′-methyl-1′,1′-dioxido-5′H-spiro[cyclopropane-1,4′-pyrido[2,3-f][1,2,5]thiadiazepin]-2′(3′H)-yl)methyl)phenyl)propanoic Acid], the Kd in assay [1] was below 1 nM. This compound also had an EC50 in assay [2] (Homo sapiens, HEK293, 24 h) of 14 nM.
In the same order, the values of `Cc1ccc([C@@H](c2ccn3c(C(F)(F)F)nnc3c2C)C(C)(C)C(=O)O)cc1CN1CC2(CC2)Oc2nc(OCCN3CCCCC3)c(C)cc2S1(=O)=O` (single isomer, unassigned) [Example 372, (*S)-2,2-Dimethyl-3-(4-methyl-3-((8′-methyl-1′,1′-dioxido-7′-(2-(piperidin-1-yl)ethoxy)spiro[cyclopropane-1,4′-pyrido[2,3-b][1,4,5]oxathiazepin]-2′(3′H)-yl)methyl)phenyl)-3-(8-methyl-3-(trifluoromethyl)-[1,2,4]triazolo[4,3-a]pyridine-7-yl)propanoic Acid] are below 1 nM and 2.9 nM.
The matching figures for `Cc1ccc([C@@H](CC(=O)O)c2ccn3c(C(F)(F)F)nnc3c2C)cc1CN1C[C@@H]2CCCN2c2ccccc2S1(=O)=O` (single isomer, unassigned) [Example 275, (*R)-3-(3-(((S)-5,5-Dioxido-7a,8,9,10-tetrahydrobenzo[f]pyrrolo[2,1-d][1,2,5]thiadiazepin-6(7H)-yl)methyl)-4-methylphenyl)-3-(8-methyl-3-(trifluoromethyl)-[1,2,4]triazolo[4,3-a]pyridin-7-yl)propanoic Acid]: 8.69 nM and 399 nM.
The matching figures for `Cc1ccc([C@@H](c2ccn3c(C(F)(F)F)nnc3c2)C(C)(C)C(=O)O)cc1CN1CC2(CCOCC2)Oc2ncccc2S1(=O)=O` (single isomer, unassigned) [Example 320, (*S)-3-(3-((1′,1′-Dioxido-2,3,5,6-tetrahydrospiro[pyran-4,4′-pyrido[2,3-b][1,4,5]oxathiazepin]-2′(3′H)-yl)methyl)-4-methylphenyl)-2,2-dimethyl-3-(3-(trifluoromethyl)-[1,2,4]triazolo[4,3-a]pyridin-7-yl)propanoic Acid]: 831 nM and 19400 nM.
`Cc1ccc([C@H](CC(=O)O)c2ccn3c(C(F)F)nnc3c2C)cc1CN1C[C@@H]2COCCN2c2ncccc2S1(=O)=O` (single isomer, unassigned) [Example 458, (*S)-3-(3-(Difluoromethyl)-8-methyl-[1,2,4]triazolo[4,3-a]pyridin-7-yl)-3-(3-(((*R)-5,5-dioxido-7a,8,10,11-tetrahydro-[1,4]oxazino[3,4-d]pyrido[2,3-f][1,2,5]thiadiazepin-6(7H)-yl)methyl)-4-methylphenyl)propanoic Acid]: in assay [1], the Kd was below 1 nM. For the same compound, the EC50 in assay [2] (Homo sapiens, HEK293, 24 h) was 276 nM.
In the same order, the values of `Cc1ccc([C@@H](c2ccn3c(C(F)F)nnc3c2C)C(C)(C)C(=O)O)nc1CN1CC2(CCOCC2)Oc2nc(OCCN3CCCCC3)c(C)cc2S1(=O)=O` (single isomer, unassigned) [Example 354, (*S)-3-(3-(Difluoromethyl)-8-methyl-[1,2,4]triazolo[4,3-a]pyridin-7-yl)-2,2-dimethyl-3-(5-methyl-6-((8′-methyl-1′,1′-dioxido-7′-(2-(piperidin-1-yl)ethoxy)-2,3,5,6-tetrahydrospiro[pyran-4,4′-pyrido[2,3-b][1,4,5]oxathiazepin]-2′(3′H)-yl)methyl)pyridin-2-yl)propanoic Acid] are below 1 nM and 20.6 nM.
In the same order, the values of `Cc1ccc([C@H](CC(=O)O)c2ccn3c(C(F)(F)F)nnc3c2C)cc1CN1CC2CCCCN2c2ncc(C#N)cc2S1(=O)=O` (stereo in doubt) [Example 312, (*S)-3-(3-((3-Cyano-5,5-dioxido-7,7a,8,9,10,11-hexahydro-6H-dipyrido[2,1-d:2′,3′-f][1,2,5]thiadiazepin-6-yl)methyl)-4-methylphenyl)-3-(8-methyl-3-(trifluoromethyl)-[1,2,4]triazolo[4,3-a]pyridin-7-yl)propanoic Acid] are below 1 nM and 13.1 nM.
